Active and inactive are the calls of the source. The calls are words filed in the database; no cut-off is given here.
How the values were obtained:
[1] = system: HepG2; assay: Antiproliferative activity against human HepG2 cells incubated for 72 hrs; details: HepG2, 72 h
[2] = system: MCF7; assay: Antiproliferative activity against human MCF7 cells incubated for 72 hrs; details: MCF7, 72 h
[3] = system: A549; assay: Antiproliferative activity against human A549 cells incubated for 72 hrs; details: A549, 72 h
[4] = system: HT-29; assay: Induction of apoptosis in human HT-29 cells assessed as increase in total apoptotic cells measured after 24 hrs by flow cytometry; format: functional, cell-based
[5] = system: PC-3; assay: Antiproliferative activity against human PC-3 cells incubated for 72 hrs; details: PC-3, 72 h
[6] = system: HT-29; assay: Antiproliferative activity against human HT-29 cells incubated for 72 hrs; details: HT-29, 72 h
[7] = system: HT-29; assay: Induction of cell cycle arrest in human HT-29 cells assessed as accumulation of cells at G2/M phase at IC50 measured after 24 hrs by flow cytometry; format: functional, cell-based
[8] = system: WI-38; assay: Antiproliferative activity against human WI-38 cells incubated for 72 hrs; details: WI-38, 72 h
[9] = system: HUVEC; assay: Cytotoxicity against HUVEC cells; details: Homo sapiens
[10] = target: Vascular endothelial growth factor receptor 2 (Homo sapiens, UniProt P35968); assay: Inhibition of VEGFR2 (unknown origin)
Vascular endothelial growth factor receptor 2, sequence (P35968 whole entry): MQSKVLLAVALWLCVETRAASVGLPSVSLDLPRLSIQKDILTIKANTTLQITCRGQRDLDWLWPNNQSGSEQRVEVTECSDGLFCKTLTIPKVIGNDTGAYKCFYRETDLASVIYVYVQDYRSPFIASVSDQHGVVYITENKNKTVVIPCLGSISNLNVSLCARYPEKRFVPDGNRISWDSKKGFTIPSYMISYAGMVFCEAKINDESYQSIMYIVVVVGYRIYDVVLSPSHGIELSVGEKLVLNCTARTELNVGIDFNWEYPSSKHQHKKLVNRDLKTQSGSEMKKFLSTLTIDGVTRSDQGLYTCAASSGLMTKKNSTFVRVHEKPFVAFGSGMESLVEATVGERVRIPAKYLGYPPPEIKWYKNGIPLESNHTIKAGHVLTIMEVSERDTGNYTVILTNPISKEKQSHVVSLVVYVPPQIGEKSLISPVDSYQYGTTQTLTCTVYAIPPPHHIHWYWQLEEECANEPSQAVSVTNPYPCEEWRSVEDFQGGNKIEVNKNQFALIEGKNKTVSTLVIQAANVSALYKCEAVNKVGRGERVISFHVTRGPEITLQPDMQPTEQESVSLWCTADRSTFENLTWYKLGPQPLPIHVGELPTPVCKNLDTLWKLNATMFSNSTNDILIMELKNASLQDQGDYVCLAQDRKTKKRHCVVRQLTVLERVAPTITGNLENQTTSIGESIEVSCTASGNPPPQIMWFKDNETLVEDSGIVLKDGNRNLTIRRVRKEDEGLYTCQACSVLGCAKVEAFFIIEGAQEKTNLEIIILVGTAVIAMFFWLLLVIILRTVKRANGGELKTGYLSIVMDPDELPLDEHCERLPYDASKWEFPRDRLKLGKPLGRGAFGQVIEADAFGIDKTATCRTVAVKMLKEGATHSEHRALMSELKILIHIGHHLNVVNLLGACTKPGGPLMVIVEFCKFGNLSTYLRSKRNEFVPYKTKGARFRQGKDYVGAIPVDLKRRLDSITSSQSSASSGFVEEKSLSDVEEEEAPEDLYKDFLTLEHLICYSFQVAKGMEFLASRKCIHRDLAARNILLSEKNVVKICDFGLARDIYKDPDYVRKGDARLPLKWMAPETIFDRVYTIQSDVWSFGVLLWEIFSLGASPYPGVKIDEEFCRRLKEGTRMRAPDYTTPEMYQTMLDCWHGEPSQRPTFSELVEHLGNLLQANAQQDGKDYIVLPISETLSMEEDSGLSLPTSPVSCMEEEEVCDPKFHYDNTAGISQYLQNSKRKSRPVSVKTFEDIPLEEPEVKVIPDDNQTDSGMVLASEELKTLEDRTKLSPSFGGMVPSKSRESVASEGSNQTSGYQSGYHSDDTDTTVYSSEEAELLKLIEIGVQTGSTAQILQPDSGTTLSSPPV

| Compound | IC50 [1] [µM] | IC50 [2] [µM] | IC50 [3] [µM] | IC50 [5] [µM] | IC50 [6] [µM] | IC50 [8] [µM] | also measured |
| --- | --- | --- | --- | --- | --- | --- | --- |
| N#Cc1c(N=CNc2ccc(Cl)cc2)oc(-c2ccccc2)c1-c1ccccc1 | 7.28 | 6.72 | 6.66 | 14.5 | 8.51 | 30 | Activity [4]: Active; Activity [7]: Active |
| N#Cc1c(N=CNc2ccc(Br)cc2)oc(-c2ccccc2)c1-c1ccccc1 | 11.2 | 9.06 | 10.1 | 23.2 | 12.1 | 27.4 | – |
| COc1ccc(-c2nc3c4cc(-c5ccc(OC)cc5)oc4ncn3n2)cc1 | – | – | – | – | – | – | IC50 [9]: 22.6 µM |
| N=c1c2cc(-c3ccccc3)oc2ncn1/N=C/c1ccc(Br)cc1 | – | – | – | – | – | – | IC50 [9]: 61.2 µM |
| Cc1cccc(-c2nc3c4c(-c5ccccc5)c(-c5ccccc5)oc4ncn3n2)c1 | – | – | – | – | – | – | IC50 [10]: 0.121 µM |
| Cc1ccc(-c2nc3c4c(-c5ccccc5)c(-c5ccccc5)oc4ncn3n2)cc1 | – | – | – | – | – | – | IC50 [10]: 0.125 µM |
| O=C(Nc1ncnc2oc(-c3ccccc3)c(-c3ccccc3)c12)c1ccc([N+](=O)[O-])cc1 | 13.1 | 11.4 | 14.5 | 22.1 | 21.4 | 26.5 | – |
